Patent US6124352A (priority 1994, dated 2000)
≈ marks a conversion by molar mass, not a printed value.

Columns and labels:
[1] = system: Candida albicans; assay: In Vitro fungicidal test (number of colonies/plate); conditions: for Number of Colonies/Plate, Plate No. 1 / Number of Colonies/Plate, Plate No. 2 / Number of Colonies/Plate, Plate No. 3 / Number of Colonies/Plate, Plate No. 4 / Number of Colonies/Plate, Plate No. 5 / Number of Colonies/Plate, Plate No. 6 / Number of Colonies/Plate, Plate No. 7 / Number of Colonies/Plate, Plate No. 8 / Number of Colonies/Plate, Plate No. 9: drug final concentration 0.1 mg/ml, 80 min at 30° C., plates 48 hours; for Number of Colonies/Plate, Plate No. 1: plate 1; for Number of Colonies/Plate, Plate No. 2: plate 2; for Number of Colonies/Plate, Plate No. 3: plate 3; for Number of Colonies/Plate, Plate No. 4: plate 4; for Number of Colonies/Plate, Plate No. 5: plate 5; for Number of Colonies/Plate, Plate No. 6: plate 6; for Number of Colonies/Plate, Plate No. 7: plate 7; for Number of Colonies/Plate, Plate No. 8: plate 8; for Number of Colonies/Plate, Plate No. 9: plate 9
Procedure: The 10% wlw malt extract, 2% agar solution used for plating in this test was prepared by mixing 100 g malt extract, 20 g agar, and a pellet of sodium hydroxide (about 0.1 g) in 1 liter of distilled, deionized water (DDW). This solution was sterilized by autoclaving, and then poured into plates.
The yeast-malt (YM) broth was composed of 3 g yeast extract, 3 g malt extract, 5 g peptone, and 10 g glucose in 1 liter DDW. The solution was brought to pH 7.2 with inorganics (e.g., hydrochloric acid or sodium hydroxide), then sterilized by autoclaving.
Stock solutions of the drugs to be tested were made in a mixture of dimethylformamide (DMF) and 0.05 M phosphate buffer at pH 7.2, combined in a 4:6 ratio of DME to buffer. Test solutions of 1 mg/ml solutions were prepared.
Two control solutions were prepared. One was the phosphate buffer as described above, the other was a mixture of DMF and the buffer in a 4:6 ratio as described above.
All drug and control solutions were sterilized by filtration through a 0.2 g filter.

[2] = system: Candida albicans; assay: Serial Dilution Assay, Candida albicans; type: cell-based; conditions: 24 hours at 30°, OD 600 nm
Procedure: (§1) Serial dilution assays of 3,5-dibromo-2,6-dinitrobenzoic acid and nystatin were performed on Candida albicans, Trichophyton or Asperigillus. 9 ml (1×10^4 cells) of each diluted yeast suspension was added to 1 ml of various serial dilutions of the drug to be tested in 15 ml centrifuge tubes. The final drug concentrations ranged from 0.1 to 0.0001 mg/ml. Two control tubes were also prepared using DDW instead of a drug solution. The tubes were capped and incubated for 24 hours at 30° with shaking at 200 rpm. The fungal growth was assessed by measuring optical density at 600 nm using a nephelometer.

[3] = system: Candida albicans; assay: Relative in vitro efficacy (growth inhibition of Candida albicans on agar replicate plates); type: cell-based; conditions: 100-150 cells of Candida albicans plated on replicate agar plates containing 15 μg of compound
Procedure: These relative efficacy numbers were obtained by plating 100-150 cells of Candida albicans on replicate agar plates containing 15 μg of the named compound and by determining the relative growth inhibition of each compound.

[4] = system: Trichophyton; assay: Serial Dilution Assay, Trichophyton; type: cell-based; conditions: 24 hours at 30°, OD 600 nm
Procedure: as §1

[5] = Acute intravenous toxicity (LD50); type: in vivo; conditions: mouse, in vivo; mice, one intravenous dose, observed for 14 days
Procedure: (§2) The acute intravenous toxicity of 3,5-dibromo-2,6-dinitrobenzoic acid in mice is assessed by determining the mean lethal dose (LD50) using a well-known method. Mice are fed a standard laboratory diet for 8-10 weeks. Five animals of each sex are administered one intravenous dose of 3,5-dibromo-[…] acid. The animals are observed for 14 days, and the number of deaths noted.

[6] = system: Asperigillus; assay: Serial Dilution Assay, Aspergillus; type: cell-based
Procedure: as §1

[7] = system: mice; conditions: mouse, in vivo; cited from earlier work
[8] = system: mice; assay: Acute intravenous toxicity (LD50); type: in vivo; conditions: one intravenous dose, observed for 14 days
Procedure: as §2

[9] = system: Pneumocystis carinii; assay: Pneumocystis carinii short term culture, viability by incorporation of [3H] para-aminobenzoic acid; type: cell-based; conditions: fungus removed from rat lungs, read-out: IC50 against Pneumocystis carinii
Procedure: (§3) In comparison, the IC50 of pentamidine, the agent now widely used to counter P. carinii fungus infections, was 2 μg/ml.

[10] = Water solubility; type: physicochemical; conditions: in words
[11] = system: wide range of fungi; assay: Minimum inhibitory concentration, second independent laboratory (standard agar dilution method), fungi; type: cell-based; conditions: Isosensitest agar
Procedure: (§4) The second laboratory compared the minimum inhibitory concentrations (μg/ml) of 3,5-dichloro-2,6-dinitrobenzoic acid and Amphotericin B, an antifungal agent. The strains were plated, in the standard agar dilution method, on Isosensitest agar containing a single antifungal agent. […] As such, when Amphotericin B is tested in agar, its activity appears higher than it would in vivo.

[12] = system: C. albicans C316; assay: Stability and activity against C. albicans C316 in various broth media; type: cell-based; conditions: even in the presence of 50% mouse serum
Procedure: as §3

[13] = system: nine fungal strains (Candida spp., Cryptococcus neoformans, Aspergillus fumigatus); assay: Minimum inhibitory concentration, first independent laboratory (broth); type: cell-based; conditions: HR/Mops broth and Sabouraud dextrose broth
Procedure: Additional in vitro evaluation of the antifungal activity of the compounds was performed by two independent testing laboratories. One laboratory found the minimum inhibitory concentration (μg/ml), in fungal strains, of 3,5-dichloro-2,6-dinitrobenzoic acid to range from 1.56 to 6.3 when nine fungal strains (Candida spp., Cryptococcus neoformans, Aspergillus fumigatus) were tested in HR/Mops broth and Sabouraud dextrose broth.

[14] = system: bacteria; assay: Activity against bacteria, second independent laboratory (standard agar dilution method); type: cell-based; conditions: Isosensitest agar
Procedure: as §4

[15] = read-out: final concentration at which fungal growth was completely inhibited

Molecule: C[C@@H]1[C@H](O)[C@@H](C)/C=C/C=C/C=C/C=C/C=C/C=C/C=C/[C@H](O[C@@H]2O[C@H](C)[C@@H](O)[C@H](N)[C@@H]2O)C[C@@H]2O[C@](O)(C[C@@H](O)C[C@@H](O)[C@H](O)CC[C@@H](O)C[C@@H](O)CC(=O)O[C@H]1C)C[C@H](O)[C@H]2C(=O)O [Amphotericin B, amphotericin B]
- Number of Colonies/Plate, Plate No. 1 [1]: 50
- Number of Colonies/Plate, Plate No. 2 [1]: 15
- Number of Colonies/Plate, Plate No. 3 [1]: 9
- Number of Colonies/Plate, Plate No. 4 [1]: 56
- Number of Colonies/Plate, Plate No. 5 [1]: 51
- Number of Colonies/Plate, Plate No. 6 [1]: 48
- Number of Colonies/Plate, Plate No. 7 [1]: 55
- Number of Colonies/Plate, Plate No. 8 [1]: 65
- Number of Colonies/Plate, Plate No. 9 [1]: 64

Molecule: O=C(O)c1c([N+](=O)[O-])c(Br)cc(Br)c1[N+](=O)[O-] [Example 1, 3,5-dibromo-2,6-dinitrobenzoic acid]
- MIC [2, 15]: 1.5 µg/mL (≈ 4.06 µM)
- Relative In Vitro Efficacy [3]: 100
- MIC [4, 15]: 1.5 µg/mL (≈ 4.06 µM)
- LD50 at 336 h [5]: ~240 mg/kg
- MIC ([6]; 24 h, read-out: final concentration at which fungal growth was completely inhibited): 1.5 µg/mL (≈ 4.06 µM)

Molecule: C[C@@H]1[C@H](O)[C@@H](C)/C=C/C=C/CC/C=C/C=C/C=C/C=C/C(O[C@H]2O[C@H](C)[C@@H](O)[C@H](N)[C@@H]2O)CC2O[C@](O)(CC(O)C(O)CCC(O)CC(O)CC(O)CC(=O)O[C@H]1C)CC(O)C2C(=O)O (some centres unmarked) [nystatin, reference compound]
- final concentration at which fungal growth was completely inhibited [2]: 1.5 µg/mL
- toxicity compared with the compound of the invention tested [7]: significantly higher toxicity than the compound of the invention tested
- final concentration at which fungal growth was completely inhibited [4]: 1.5 µg/mL
- final concentration at which fungal growth was completely inhibited ([6]; Asperigillus, 24 hours at 30°, OD 600 nm): 1.5 µg/mL

Molecule: O=C(O)c1cc([N+](=O)[O-])c(Cl)c([N+](=O)[O-])c1Cl [2,4-dicholoro-3,5-dinitro benzoic acid]
- Relative In Vitro Efficacy [3]: 10

Molecule: 2,4-dibromo-3,5-dinitrobenzoic acid
- LD50 [8]: 240 mg/kg

Molecule: CC(=O)N1CCN(c2ccc(OCC3COC(Cn4ccnc4)(c4ccc(Cl)cc4Cl)O3)cc2)CC1 (centres unmarked) [Ketoconazole, ketoconazole]
- Number of Colonies/Plate, Plate No. 1 [1]: 82
- Number of Colonies/Plate, Plate No. 2 [1]: 39
- Number of Colonies/Plate, Plate No. 3 [1]: 37
- Number of Colonies/Plate, Plate No. 4 [1]: 94
- Number of Colonies/Plate, Plate No. 5 [1]: 103
- Number of Colonies/Plate, Plate No. 6 [1]: 78
- Number of Colonies/Plate, Plate No. 7 [1]: 120
- Number of Colonies/Plate, Plate No. 8 [1]: 122
- Number of Colonies/Plate, Plate No. 9 [1]: 95

Molecule: COC(=O)c1c([N+](=O)[O-])c(Br)cc(Br)c1[N+](=O)[O-] [Example 4, methyl 3,5-dibromo-2,6-dinitrobenzoate]
- Relative In Vitro Efficacy [3]: 4

Molecule: N=C(N)c1ccc(OCCCCCOc2ccc(C(=N)N)cc2)cc1 [pentamidine, reference compound]
- IC50 [9]: 2 µg/mL (≈ 5.87 µM)

Molecule: O=C(O)c1c([N+](=O)[O-])c(Cl)cc(Cl)c1[N+](=O)[O-] [Example 2, 3,5-dichloro-2,6-dinitrobenzoic acid]
- water solubility [10]: water soluble
- Number of Colonies/Plate, Plate No. 1 [1]: 22
- Number of Colonies/Plate, Plate No. 2 [1]: 4
- Number of Colonies/Plate, Plate No. 3 [1]: 3
- Number of Colonies/Plate, Plate No. 4 [1]: 31
- Number of Colonies/Plate, Plate No. 5 [1]: 28
- Number of Colonies/Plate, Plate No. 6 [1]: 33
- Number of Colonies/Plate, Plate No. 7 [1]: 20
- Number of Colonies/Plate, Plate No. 8 [1]: 19
- Number of Colonies/Plate, Plate No. 9 [1]: 25
- fungicidal activity relative to amphotericin B ([1]; from Table 2): about twice as effective as amphotericin B
- fungicidal activity relative to ketoconazole ([1]; from Table 2): about four times as effective as ketoconazole
- fungal inhibition compared with Amphotericin B ([11]; agar-plate conditions optimized for Amphotericin B): less fungal inhibition than Amphotericin B
- MIC ([11]; wide range of fungi): 4 to 31 µg/mL (≈ 14.2 to 110 µM)
- stability and activity against C. albicans C316 [12]: remained stable and active
- MIC [13]: 1.56 to 6.3 µg/mL (≈ 5.55 to 22.4 µM)
- activity against bacteria [14]: not against bacteria
- Relative In Vitro Efficacy [3]: 100
- IC50 [9]: 17 µg/mL (≈ 60.5 µM)
